According to patent US6355799B1, “Substituted benzene compounds, process for their preparation, and herbicidal and defoliant compositions containing them” (ISK Americas Incorporated, priority 1997, dated 2002):

How the values were obtained:
Format in all cases: in vivo
[1] = system: redroot pigweed (Amaranthus retroflexus, AMARE); assay: Pre-emerge test, greenhouse herbicide activity screening; settings: rating scale 0-100, 14 days after application
In short: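 Rating: 0–100 visual injury, 14 DAA. Application: acetone, 187 l/ha, 15–1000 g ai/ha, flat-fan track sprayer with nozzle 40–45 cm above soil or canopy. Post-emerge runs used 0.25% v/v surfactant on 2–3 leaf plants.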

[2] = system: field corn (Zea mays L., var. Dekalb 535, CORN); assay: Post-emerge test, crop safety; settings: post-emerge, crop damage rating 0-100 at 14 days after application
Text: (§1) A standard greenhouse herbicide activity screening system was used to evaluate the herbicidal efficacy and crop safety of these test compounds. Seven broadleaf weed species including redroot pigweed (Amaranthus retroflexus, AMARE, velvetleaf (Abutilon theophrasti, ABUTH), sicklepod (Cassia obtusifolia, CASOB), ivyleaf morningglory (Ipomoea hederacea, IPOHE), lambsquarters (Chenopodium album, CHEAL), common ragweed (Ambrosia artemisizfolia L., AMBEL), and cocklebur (Xanthium strumarium, XANST) were used as test species. Four grass weed species including green foxtail (Setaria viridis, SETVI), barnyardgrass (Echinochloa crus-galli, ECHCG), johnsongrass (Sorghum halepense, SORHA), and large crabgrass (Digitaria sanguinalis, DIGSA) were also used. In addition, three crop species, field corn (Zea mays L., var. Dekalb 535, CORN), soybean (Glycine max L., var. Pella 86, SOY), and is upland rice (Oryza sp., var. Tebonnet, RICE) were included.
(§2) All plants were grown in 10 cm square plastic pots which were filled with a sandy loam soil mix. For pre-emerge tests, seeds were planted one day prior to application of the test compounds. For post-emerge tests, seeds were planted 8-21 days prior to the test to allow emergence and good foliage development prior to application of the test substances. At the time of the post-emerge application, plants of all species were usually at the 2-3 leaf stage of development.
(§3) All test compounds Were dissolved in acetone and applied to the test units in a volume of 187 l /ha. Test materials were applied at rates ranging from 15 g ai/ha to 1000 g ai/ha using a track sprayer equipped with a TJ8001E even flow flat fan spray nozzle. Plants were arranged on a shelf so that the top of the canopy (post-emerge) or top of the soil surface (pre-emerge) was 40-45 cm below the nozzle. Pressurized air was used to force the test solution through the nozzle as it was mechanically advanced (via electrically driven chain drive) over the top of all test plants/pots. This application simulates a typical commercial field herbicide application.
(§4) In the post-emerge test, a commercial non-ionic surfactant was also included (0.25% v/v) to enhance wetting of the leaf surfaces of target plants. Immediately after application, test units of the pre-emerge applications were watered at the soil surface to incorporate the test materials. Subsequently, these test units were bottom-watered. Post-emerge test units were always bottom-watered.
(§5) At 14 days after application of the test materials, phytotoxicity ratings were recorded. A rating scale of 0-100 was used as previously described in Research Methods in Weed Science, 2nd edition, B. Truelove, Ed., Southern Weed Science Society, Auburn University, Auburn, Ala. 1977. Briefly, “0” corresponds to no damage and “100” corresponds to complete death of all plants in the test unit. This scale was used both to determine efficacy against weed species and damage to crop species. Herbicide activity data for various compounds of this invention, which are shown by compound No. in Tables 1-8, are shown in Tables 11 and 12.

[3] = system: upland rice (Oryza sp., var. Tebonnet, RICE); assay: Post-emerge test, crop safety; settings: post-emerge, crop damage rating 0-100 at 14 days after application
Text: as §1, §2, §3, §4, §5

[4] = system: lambsquarters (Chenopodium album, CHEAL); assay: Pre-emerge test, greenhouse herbicide activity screening; settings: rating scale 0-100, 14 days after application
Text: as §1, §2, §3, §4, §5

[5] = system: sicklepod (Cassia obtusifolia, CASOB); assay: as above; settings: rating scale 0-100, 14 days after application
Text: as §1, §2, §3, §4, §5

[6] = system: velvetleaf (Abutilon theophrasti, ABUTH); assay: as above; settings: rating scale 0-100, 14 days after application
Text: as §1, §2, §3, §4, §5

[7] = system: ivyleaf morningglory (Ipomoea hederacea, IPOHE); assay: as above; settings: rating scale 0-100, 14 days after application
Text: as §1, §2, §3, §4, §5

[8] = system: large crabgrass (Digitaria sanguinalis, DIGSA); assay: as above; settings: rating scale 0-100, 14 days after application
Text: as §1, §2, §3, §4, §5

[9] = system: green foxtail (Setaria viridis, SETVI); assay: as above; settings: rating scale 0-100, 14 days after application
Text: as §1, §2, §3, §4, §5

[10] = system: barnyardgrass (Echinochloa crus-galli, ECHCG); assay: as above; settings: rating scale 0-100, 14 days after application
Text: as §1, §2, §3, §4, §5

[11] = system: field corn (Zea mays L., var. Dekalb 535, CORN); assay: Pre-emerge test, crop safety; settings: rating scale 0-100, 14 days after application
Text: as §1, §2, §3, §4, §5

[12] = system: upland rice (Oryza sp., var. Tebonnet, RICE); assay: Pre-emerge test, crop safety; settings: rating scale 0-100, 14 days after application
Text: as §1, §2, §3, §4, §5

[13] = system: lambsquarters (Chenopodium album, CHEAL); assay: Post-emerge test, greenhouse herbicide activity screening; settings: post-emerge, phytotoxicity rating 0-100 at 14 days after application
Text: as §1, §2, §3, §4, §5

[14] = system: sicklepod (Cassia obtusifolia, CASOB); assay: as above; settings: post-emerge, phytotoxicity rating 0-100 at 14 days after application
Text: as §1, §2, §3, §4, §5

[15] = system: velvetleaf (Abutilon theophrasti, ABUTH); assay: as above; settings: post-emerge, phytotoxicity rating 0-100 at 14 days after application
Text: as §1, §2, §3, §4, §5

[16] = system: ivyleaf morningglory (Ipomoea hederacea, IPOHE); assay: as above; settings: post-emerge, phytotoxicity rating 0-100 at 14 days after application
Text: as §1, §2, §3, §4, §5

[17] = system: large crabgrass (Digitaria sanguinalis, DIGSA); assay: as above; settings: post-emerge, phytotoxicity rating 0-100 at 14 days after application
Text: as §1, §2, §3, §4, §5

[18] = system: green foxtail (Setaria viridis, SETVI); assay: as above; settings: post-emerge, phytotoxicity rating 0-100 at 14 days after application
Text: as §1, §2, §3, §4, §5

[19] = system: redroot pigweed (Amaranthus retroflexus, AMARE); assay: as above; settings: post-emerge, phytotoxicity rating 0-100 at 14 days after application
Text: as §1, §2, §3, §4, §5

[20] = system: barnyardgrass (Echinochloa crus-galli, ECHCG); assay: as above; settings: post-emerge, phytotoxicity rating 0-100 at 14 days after application
Text: as §1, §2, §3, §4, §5

SMILES: COc1c(Cl)cc(F)c(N2C(=O)C3CCCCN3C2=S)c1NC(=O)c1ccc2ccccc2c1 (stereo not shown) [12-5]
- Pre-emerge herbicidal activity, phytotoxicity rating AMARE ([1]; 63 g ai/ha): 30
- Pre-emerge herbicidal activity, phytotoxicity rating AMARE ([1]; 250 g ai/ha): 100
- Post-emerge Herbicidal Activity CORN ([2]; 63 g ai/ha): 25
- Post-emerge Herbicidal Activity CORN ([2]; 250 g ai/ha): 20
- Post-emerge Herbicidal Activity RICE ([3]; 63 g ai/ha): 20
- Post-emerge Herbicidal Activity RICE ([3]; 250 g ai/ha): 15
- Pre-emerge herbicidal activity, phytotoxicity rating CHEAL ([4]; 63 g ai/ha): 90
- Pre-emerge herbicidal activity, phytotoxicity rating CHEAL ([4]; 250 g ai/ha): 100
- Pre-emerge herbicidal activity, phytotoxicity rating CASOB ([5]; 63 g ai/ha): 0
- Pre-emerge herbicidal activity, phytotoxicity rating CASOB ([5]; 250 g ai/ha): 80
- Pre-emerge herbicidal activity, phytotoxicity rating ABUTH ([6]; 63 g ai/ha): 70
- Pre-emerge herbicidal activity, phytotoxicity rating ABUTH ([6]; 250 g ai/ha): 90
- Pre-emerge herbicidal activity, phytotoxicity rating IPOHE ([7]; 63 g ai/ha): 0
- Pre-emerge herbicidal activity, phytotoxicity rating IPOHE ([7]; 250 g ai/ha): 20
- Pre-emerge herbicidal activity, phytotoxicity rating DIGSA ([8]; 63 g ai/ha): 0
- Pre-emerge herbicidal activity, phytotoxicity rating DIGSA ([8]; 250 g ai/ha): 10
- Pre-emerge herbicidal activity, phytotoxicity rating SETVI ([9]; 63 g ai/ha): 0
- Pre-emerge herbicidal activity, phytotoxicity rating SETVI ([9]; 250 g ai/ha): 0
- Pre-emerge herbicidal activity, phytotoxicity rating ECHCG ([10]; 63 g ai/ha): 0
- Pre-emerge herbicidal activity, phytotoxicity rating ECHCG ([10]; 250 g ai/ha): 40
- Pre-emerge phytotoxicity rating, crop damage CORN ([11]; 63 g ai/ha): 0
- Pre-emerge phytotoxicity rating, crop damage CORN ([11]; 250 g ai/ha): 0
- Pre-emerge phytotoxicity rating, crop damage RICE ([12]; 63 g ai/ha): 0
- Pre-emerge phytotoxicity rating, crop damage RICE ([12]; 250 g ai/ha): 10
- Post-emerge Herbicidal Activity CHEAL ([13]; 63 g ai/ha): 100
- Post-emerge Herbicidal Activity CHEAL ([13]; 250 g ai/ha): 99
- Post-emerge Herbicidal Activity CASOB ([14]; 63 g ai/ha): 40
- Post-emerge Herbicidal Activity CASOB ([14]; 250 g ai/ha): 60
- Post-emerge Herbicidal Activity ABUTH ([15]; 63 g ai/ha): 100
- Post-emerge Herbicidal Activity ABUTH ([15]; 250 g ai/ha): 100
- Post-emerge Herbicidal Activity IPOHE ([16]; 63 g ai/ha): 100
- Post-emerge Herbicidal Activity IPOHE ([16]; 250 g ai/ha): 99
- Post-emerge Herbicidal Activity DIGSA ([17]; 63 g ai/ha): 0
- Post-emerge Herbicidal Activity DIGSA ([17]; 250 g ai/ha): 10
- Post-emerge Herbicidal Activity SETVI ([18]; 63 g ai/ha): 20
- Post-emerge Herbicidal Activity SETVI ([18]; 250 g ai/ha): 10
- Post-emerge Herbicidal Activity AMARE ([19]; 63 g ai/ha): 70
- Post-emerge Herbicidal Activity AMARE ([19]; 250 g ai/ha): 85
- Post-emerge Herbicidal Activity ECHCG ([20]; 63 g ai/ha): 10
- Post-emerge Herbicidal Activity ECHCG ([20]; 250 g ai/ha): 10
